Data set [1] relates to U87 cells. Description: Transmission electron microscopy of vacuoles. It is filed as cell-based. The settings on record: 72 hours of KD. On the procedure: Since endocytic vacuoles (including macropinosomes) are known to have a single membrane U87 cells treated with control and siC9 siRNA (SEQ ID NO:631) were imaged using transmission electron microscopy (TEM). […] FIG. 13 is a set of representative TEM images of U87 cells treated with Control (siCtrl) and C9 (siC9) siRNA after 72 hours of KD. One asterisk indicates representative vacuoles; two asterisks represent membrane folding. The white boxes in FIG. 13A and FIG. 13B show locations for the digital zoomed-in images below, in FIG. 13C and FIG. 13D. The scale bar represents 5 μm.

Data set [2] relates to U87 cells. Description: TUNEL assay for DNA breaks. It is filed as cell-based. The settings on record: vs control. The protocol:
Cells were treated with control and C9 siRNA for three days. On day three, cells were collected for TUNEL assay using the FlowTACS kit (TREVIGEN™, 4817-60-K) according to manufacturer's instructions to detect DNA fragmentation. For a positive control, DNA damage was induced using doxorubicin. Data were collected on a FACSCalibur™ flow cytometer (Becton Dickinson™) and data analysis performed on FlowJo™.
ROS can cause oxidative DNA damage. Since elevated ROS levels were observed under C9 KD conditions, it may cause increase in DNA damage. To test this hypothesis, a TUNEL assay was used to measure DNA breaks. […] In addition to C9KD, U87 cells were treated with a known chemotherapeutic DNA damage-inducing drug to serve as a positive control for DNA damage (see FIG. 23). FIG. 23 presents data for the TUNEL assay of U87 cells treated as described for FIG. 21 and for positive DNA-damage control with 0.5 μM doxorubicin (DOX). FIG. 23A presents data for the percentage of cells with DNA fragmentation (shown by DNA damage) comparing control (siCtrl) C9 KD (siC9; SEQ ID NO:631) and DOX-treated cells as measured by FACS analysis. […] FIG. 24 is a set of graphs showing data for cells treated as described for FIG. 23, with the exception of using a different C9 siRNA, indicated as siC9 #2 (SEQ ID NO:633).

Data set [3] relates to U87 cells. The experiment in a line: FACS cell cycle analysis. The conditions noted are these: day three. It is filed as cell-based. On the procedure: U87 cells were treated with control and C9 siRNA for 3 days. On day 3, cells were fixed in 70% ethanol at −20° C., re-suspended in phosphate-citrate buffer (192 mM Na2HPO4, 4 mM citric acid), and incubated for 30 minutes in PBS containing 10 μg/mL propidium iodide (PI) and 10 μg/mL RNase A. Data were collected on a FACSCalibur™ flow cytometer (Becton Dickinson™). Data analysis was performed using FlowJo™.
To validate the cell viability assays, C9 was knocked down in U87 cells and the cells were analyzed by FACS. […] The bar plots represent the cell cycle measurement (subG1-purple, G2-green, S-red, G1-blue) of three independent biological replicates upon control (siCtrl) or C9 (siC9; SEQ ID NO:631) siRNA. Error bars represent S.E.M.

The test system of data set [4] is U2OS cells. Description: Western blot of U2OS cells after C9 KD. It is filed as cell-based, human. On the procedure: (§1) For Western blot analysis, cells were lysed with lysis buffer (20 mM sodium phosphate (pH 7.0), 250 mM NaCl, 30 mM sodium pyrophosphate, 0.1% Nonidet™ P-40, 5 mM EDTA, 10 mM NaF, 0.1 mM Na3VO4, and 1 mM PMSF) supplemented with complete protease inhibitors (Roche™) and homogenized by passage through a 28 gauge needle. Protein concentration was measured with a Bio-Rad™ protein assay dye reagent and results were read using a spectrophotometer (BiophotometerPlus™ by Eppendorf™). Protein extracts were resolved by SDS PAGE on gradient (Thermo Fisher™) or 12% gels. Proteins were then electrotransferred at 350 mA for 80 minutes onto a PVDF membrane (Immobilon-P PVDF). Membranes were blocked with PBST with 5% milk and 1% BSA for 30 minutes. Quantitation of blots was performed Image Studio Lite software (LI-COR Biosciences™).
See FIG. 28, a WB of U2OS cells treated with control and C9 siRNA and probed for PARP1, p-p53 (s15), p53, p-ERK, p21, p-H2AX, using actin as a loading control.

The test system of data set [5] is caspase-3, PARP1. The experiment in a line: Western blot of caspase-3 and PARP1 cleavage. The conditions noted are these: U87 cells. Format: cell-based. The protocol: as §1
To check known markers of apoptosis, including caspase-3 cleavage and PARP1 cleavage, U87 cells were treated with doxorubicin as a positive control for apoptotic markers. […] FIG. 17 is a set of WB visualizing the levels of cleaved and un-cleaved caspace-3, and cleaved and un-cleaved PARP1 in cells treated with control (siCtrl) and C9 (siC9; SEQ ID NO:631) siRNA, and U87 cells treated.
(A western blot detects proteins with antibodies after separation by electrophoresis.)

Data set [6] relates to LAMP1. Description: LAMP1 western blot. The conditions noted are these: U87 cells. It is filed as cell-based. The protocol:
as §1
To this end, C9 was knocked down in U87 cells and employed a fluorescent autophagy marker ptfLC3 to mark autophagosomes and autophagolysosomes. […] The white arrows show vacuoles and the white box represents a zoom in of the cell area with vacuoles. […] The white box here represents a zoom in of the cell area with vacuoles, nuclei stained with DAPI (blue). FIG. 4B is a WB showing LAMP1 levels after control (siCtrl) and C9 KD (siC9; SEQ ID NO:631).

For data set [7], the system named is p53 null U87 cells. Description: Western blot of PARP1, p-ERK, γ-H2AX in p53 null U87 cells. It is filed as cell-based. The protocol:
as §1
In addition, C9 was knocked down with two independent siRNAs in p53 null U87 cells to investigate the role of p53 in the viability of the cells.
See FIG. 37, a WB of p53 null U87 cells (KO #4) treated with control and C9 siRNA and showing levels of PARP1, p-ERK, γ-H2AX. Actin was used as a loading control.

“siC9: siRNA targeting C9 mRNA: UUAAUGAAACAAUAAUCACUC (SEQ ID NO:631; sense) and GUGAUUAUUGUUUCAUUAAUC (SEQ ID NO:632; antisense) (listed as RNA, chemistry not given here)”: the “vacuole appearance in TEM” value in data set [1] was “electron-transparent and had a single membrane”. The “DNA breaks (TUNEL)” value in data set [2] is on record as “increase in DNA breaks”. Also, in data set [3], the “decrease in G1” value is listed as 4.7 fold, the “increase in S phase” value worked out at 3.3 fold and the “increase in SubG1 phase” value is 3.1 fold. Moreover, in data set [4], the CDKN1A/p21 protein levels entry is “increase in CDKN1A/p21 protein levels”, the PARP1 level result was “PARP1 downregulation”, the p53 levels result is listed as “increased p53 levels” and the p-ERK entry is recorded as “increases in p-ERK”. In data set [4], the “phosphorylated p53 (on s15)” value is recorded as “increases in phosphorylated p53” and the γ-H2AX entry was “increases”. In data set [5], the PARP1 cleavage entry is “not observed”, the PARP1 protein entry is reported as “no PARP1 protein observed” and the “caspase 3 cleavage” value is “did not lead to caspase 3 cleavage”. Further, in data set [6], the LAMP1 levels result was “increased levels”. In data set [7] (p53 KO U87 cells), the PARP1 protein result is given as “PARP downregulation occurred without the presence of p53”. Moreover, the “ERK and γ-H2AX phosphorylation” value in data set [7] (p53 null U87 cells (KO #4)) is “increased ERK and γ-H2AX phosphorylation”.

(Values after patent publication US20210108199A1, “Treatment for aggressive cancers by targeting C9ORF72” (The Trustees of Columbia University in the City of New York, priority 2017, published 2021).)
